From patent US7462605B2, “Phosphoramidate compounds and methods of use” (Celmed Oncology (USA), Inc., priority 2002, dated 2008)
“Also recorded” adds a separate entry of the source.

Legend:
[1] = system: SKCO1 (Colon) tumor cells; test: alamarBlue growth inhibition, SKCO1; assay type: cell-based, human; conditions: 120 hours
Protocol: (§1) Growth Inhibition Studies. Cells growing exponentially were transferred to 384-well flat bottom tissue culture plates. All cell types were plated at a density of 500 cells per well in 25 μL of complete medium (RPMI 1640+10% fetal bovine serum+antibiotics/antimycotics). After 24 hours (day 0), 25 μL of complete medium containing the experimental compounds over the dose range of 10^ñ3 to 10^ñ10 M were added in triplicate. […] 5 μL of the redox indicator, alamarBlue, was added to each well (10% v/v). After 4 hours incubation at 37° C., fluorescence was monitored at 535 nm excitation and 595 nm emission.
(§2) Concentration vs. relative fluorescence units (RFU) were plotted, and sigmoid curves were fit using the Hill equation.

[2] = system: RKO colon cancer cells; test: alamarBlue cytotoxicity, RKO parental; assay type: cell-based, human; conditions: Drug Selection None, read-out: NB1011-IC50
Protocol: as §1, §2
(§3) Cells were grown and characterized as described above. TS expression level is relative to CCD18co, a normal colon epithelial cell line. Tritium release is background substracted as described in Methods. ND=Not detectable above background.

[3] = system: MCF7 TDX/1011 cells (MCF7 TDX selected for resistance to NB1011); test: alamarBlue cytotoxicity, MCF7 TDX/1011; assay type: cell-based, human
Protocol: as §1, §2
Reversal of Resistance. The origin and characteristics of the human breast cancer MCF7 TDX cell line have been previously described (Drake, et al. (1996)). Briefly, MCF-7 breast cancer cells were selected in vitro for resistance to Tomudex by continuous exposure to stepwise increases in TDX concentrations up to 2.0 μM. […] After a dramatic initial cell killing effect, resistant colonies emerged, and vigorously growing monolayers were formed. TS protein level and IC50 for 5-FU, TDX, and NB1011 were determined for the resultant MCF7 TDX/1011 cell line as described in above by western blot and the alamarBlue cytotoxicity assay, respectively.

[4] = system: NHA (Brain) normal cells; test: alamarBlue growth inhibition, NHA; assay type: cell-based, human; conditions: 120 hours
Protocol: as §1, §2

[5] = system: SOAS2 (Bone) tumor cells; test: alamarBlue growth inhibition, SOAS2; assay type: cell-based, human; conditions: 120 hours
Protocol: as §1, §2

[6] = system: H630 colon cancer cells; test: alamarBlue cytotoxicity, H630 parental; assay type: cell-based, human; conditions: Drug Selection None, read-out: NB1011-IC50
Protocol: as §1, §2, §3

[7] = target: T1, TS in intact RKO cells (Homo sapiens, UniProt P04818); test: TS activity in intact cells by tritium release; assay type: cell-based; conditions: release of [^3H]2O from 5-[^3H]deoxyuridine
T1 construct: endogenous in cells; host or cells: RKO cells
T1 sequence (P04818 2-313 limits assumed): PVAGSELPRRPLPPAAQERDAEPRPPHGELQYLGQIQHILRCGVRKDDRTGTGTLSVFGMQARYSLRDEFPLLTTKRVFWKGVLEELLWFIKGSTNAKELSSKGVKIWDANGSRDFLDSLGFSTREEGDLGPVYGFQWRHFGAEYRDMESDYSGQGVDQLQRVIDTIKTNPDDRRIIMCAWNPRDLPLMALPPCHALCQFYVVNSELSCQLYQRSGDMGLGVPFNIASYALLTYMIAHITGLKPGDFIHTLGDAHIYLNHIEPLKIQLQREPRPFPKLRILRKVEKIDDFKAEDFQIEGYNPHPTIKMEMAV
Protocol: TS activity was measured in intact RKO cells by release of [^3H]2O from 5-[^3H]deoxyuridine as described in Materials and Methods. NB1011 was washed out of cells by replacing with fresh media, incubating for 60 minutes at 37 ° C., then repeating this procedure. Control and untreated cells were subjected to the same washing procedure.
TS Activity Assay by Tritium Release from dUMP-^3H. Cells were plated in 24 well plates to a density of 30,000 cells/plate and incubated for 16 hours to allow adhesion to the plastic surface of the plate.
Immediately prior to the thymidylate synthase assay, the media was replaced with RPMI+10% dialyzed fetal calf serum. 0.5 μCi of 5-[^3H]deoxyuridine was added to each well, and plates were incubated for 60 minutes at 37° C. without additional CO2. [^3H] release was measured by adsorbing 5-[^3H]deoxyuridine to activated charcoal (10% in 1×PBS) for 5 minutes at room temperature. After centrifugation for 5 minutes at 13,000 RPM, the amount of [^3H] in the supernatant was determined by liquid scintillation counting.
The results described above indicate that BVdUMP, generated intracellularly from NB1011, is unlikely to inactivate TS during its transformation to product(s). […] In these experiments exogenous 5-(3H) deoxyuridine is added to cell culture medium and the release of tritiated water is monitored (Carreras, C. W. and Santi, D. V. (1995) and Roberts (1966)). […]

[8] = system: SW527 (Breast) tumor cells; test: alamarBlue growth inhibition, SW527; assay type: cell-based, human; conditions: 120 hours
Protocol: as §1, §2

“5-(2-Bromovinyl)-2′-deoxyuridine phenyl N-methoxy-L-alaninyl phosphoramidate [NB1011]” showed an IC50 [1] of 184 µM, an IC50 [2] of 136 µM and an IC50 [3] of 240 µM. It also gave an IC50 [4] of 839 µM, an IC50 [5] of 232 µM and an IC50 [6] of 414 µM. For the same substance, the “effect on TS activity in intact cells after wash-out” value [7] was “completely reversible; also recorded: does not irreversibly inactivate the TS enzyme” and the IC50 [8] was 431 µM.
